Measured values published in ChEMBL document CHEMBL1146176, “Synthesis and anti-microbial activity of pyrazolylbisindoles--promising anti-fungal compounds” (2006).

How the values were obtained:
Type in all cases: functional
Pseudomonas aeruginosa [1] = assay: Antimicrobial activity against Pseudomonas aeruginosa at 1 mmol after 48 hrs relative to control
Curvularia lunata [2] = assay: Antifungal activity against Curvularia lunata at 0.652 mg/ml after 48 hrs; conditions: read-out: IZ
Thanatephorus cucumeris [3] = assay: Antifungal activity against Rhizoctonia solani at 0.652 mg/ml after 48 hrs; conditions: read-out: IZ
Curvularia lunata [4] = assay: Antifungal activity against Curvularia lunata at 0.652 mg/ml after 48 hrs relative to control
Thanatephorus cucumeris [5] = assay: Antifungal activity against Rhizoctonia solani at 0.652 mg/ml after 48 hrs relative to control
Candida albicans [6] = assay: Antimicrobial activity against Candida albicans at 1 mmol after 48 hrs
[7] = test system: Staphylococcus epidermidis; assay: Antimicrobial activity against Staphylococcus epidermidis at 1 mmol after 48 hrs
Pseudomonas aeruginosa [8] = assay: Antimicrobial activity against Pseudomonas aeruginosa at 1 mmol after 48 hrs
Candida albicans [9] = assay: Antimicrobial activity against Candida albicans at 1 mmol after 48 hrs relative to control
[10] = test system: Staphylococcus epidermidis; assay: Antimicrobial activity against Staphylococcus epidermidis at 1 mmol after 48 hrs relative to control
Thanatephorus cucumeris [11] = assay: Antifungal activity against Rhizoctonia solani at 1 mmol after 48 hrs
Curvularia lunata [12] = assay: Antifungal activity against Curvularia lunata at 1 mmol after 48 hrs
Curvularia lunata [13] = assay: Antifungal activity against Curvularia lunata at 1 mmol after 48 hrs relative to control
Thanatephorus cucumeris [14] = assay: Antifungal activity against Rhizoctonia solani at 1 mmol after 48 hrs relative to control
Candida albicans [15] = assay: Antimicrobial activity against Candida albicans at 0.622 mg/ml after 48 hrs; conditions: read-out: IZ
[16] = test system: Staphylococcus epidermidis; assay: Inhibition of growth of Staphylococcus epidermidis at 0.622 mg/ml after 48 hrs; conditions: read-out: IZ
Pseudomonas aeruginosa [17] = assay: Inhibition of growth of Pseudomonas aeruginosa at 0.622 mg/ml after 48 hrs; conditions: read-out: IZ
Candida albicans [18] = assay: Antimicrobial activity against Candida albicans at 0.622 mg/ml after 48 hrs relative to control
[19] = test system: Staphylococcus epidermidis; assay: Inhibition of growth of Staphylococcus epidermidis at 0.622 mg/ml after 48 hrs relative to control
Pseudomonas aeruginosa [20] = assay: Inhibition of growth of Pseudomonas aeruginosa at 0.622 mg/ml after 48 hrs relative to control

Row | Compound | Inhibition (Pseudomonas aeruginosa [1]) | zone of inhibition at 652 µg/mL (Curvularia lunata [2]) | zone of inhibition at 652 µg/mL (Thanatephorus cucumeris [3]) | inhibition at 652 µg/mL (Curvularia lunata [4]) | inhibition at 652 µg/mL (Thanatephorus cucumeris [5]) | inhibition zone (IZ) (Candida albicans [6]) | inhibition zone (IZ) [7] | inhibition zone (IZ) (Pseudomonas aeruginosa [8]) | Inhibition (Candida albicans [9]) | Inhibition [10] | inhibition zone (IZ) (Thanatephorus cucumeris [11]) | inhibition zone (IZ) (Curvularia lunata [12]) | Inhibition (Curvularia lunata [13]) | Inhibition (Thanatephorus cucumeris [14]) | zone of inhibition at 622 µg/mL (Candida albicans [15]) | zone of inhibition at 622 µg/mL [16] | zone of inhibition at 622 µg/mL (Pseudomonas aeruginosa [17]) | inhibition at 622 µg/mL (Candida albicans [18]) | Inhibition [19] | inhibition at 622 µg/mL (Pseudomonas aeruginosa [20])
1 | COc1ccc(-c2nn(-c3ccccc3)cc2C(c2c[nH]c3ccc(Br)cc23)c2c[nH]c3ccc(Br)cc23)cc1 | 15.6% | 3 mm | 5 mm | 96.7% | 93.9% | 0 cm | 0 cm | 1.4 cm | 0% | 0% | – | – | – | – | – | – | – | – | – | –
2 | Brc1ccc(-c2nn(-c3ccccc3)cc2C(c2c[nH]c3ccc(Br)cc23)c2c[nH]c3ccc(Br)cc23)cc1 | 16.7% | – | – | – | – | 2.2 cm | 0 cm | 1.5 cm | 24.4% | 0% | 1.7 cm | 0.8 cm | 91.1% | 81.1% | – | – | – | – | – | –
3 | COc1ccc(-c2nn(-c3ccccc3)cc2C(c2c[nH]c3ccc([N+](=O)[O-])cc23)c2c[nH]c3ccc([N+](=O)[O-])cc23)cc1 | 0% | – | – | – | – | 0 cm | 0 cm | 0 cm | 0% | 0% | 4.8 cm | 1.4 cm | 84.4% | 53.3% | – | – | – | – | – | –
4 | Clc1ccc(-c2nn(-c3ccccc3)cc2C(c2c[nH]c3ccc(Br)cc23)c2c[nH]c3ccc(Br)cc23)cc1 | 0% | – | – | – | – | 0.6 cm | 0 cm | 0 cm | 6.7% | 0% | 7.4 cm | 7.6 cm | 15.6% | 17.8% | – | – | – | – | – | –
5 | O=[N+]([O-])c1ccc2[nH]cc(C(c3cn(-c4ccccc4)nc3-c3ccccc3)c3c[nH]c4ccc([N+](=O)[O-])cc34)c2c1 | 14.4% | – | – | – | – | 0 cm | 0 cm | 1.3 cm | 0% | 0% | 9 cm | 9 cm | 0% | 0% | – | – | – | – | – | –
6 | Brc1ccc2[nH]cc(C(c3cn(-c4ccccc4)nc3-c3ccccc3)c3c[nH]c4ccc(Br)cc34)c2c1 | – | – | – | – | – | 2.7 cm | 2.1 cm | 1.8 cm | – | – | 5.3 cm | 4.7 cm | 47.8% | 41.1% | 27 mm | 21 mm | 18 mm | 30% | ≤ 23.3% | 20%
7 | CCn1c(-c2ccccc2)c(C(c2cn(-c3ccccc3)nc2-c2ccc(Br)cc2)c2c(-c3ccccc3)n(CC)c3ccccc23)c2ccccc21 | 0% | – | – | – | – | 0 cm | 0.7 cm | 0 cm | 0% | 7.9% | 7.5 cm | 7.8 cm | 13.3% | 16.7% | – | – | – | – | – | –
8 | CCn1c(-c2ccccc2)c(C(c2cn(-c3ccccc3)nc2-c2ccc(Cl)cc2)c2c(-c3ccccc3)n(CC)c3ccccc23)c2ccccc21 | 15.6% | – | – | – | – | 0.5 cm | 1.4 cm | 1.4 cm | 5.6% | 15.6% | 7.3 cm | 5.2 cm | 42.2% | 18.8% | – | – | – | – | – | –
